In patent US8067042B1 (Mutual Pharmaceutical Company, Inc., priority 2007, dated 2011):
Where “and” joins values, the source holds several entries; their conditions need not be identical. Equal entries are not always repeated. Where two headings read alike, the source gives them in different places. Marks after values point to notes of the source that are not given here.

What was measured:
[1] = biological target: T1, Human CYP2B6 + P450 Reductase + Cytochrome b5 SUPERSOMES (Homo sapiens, UniProt P20813)
T1 sequence (P20813 1-491): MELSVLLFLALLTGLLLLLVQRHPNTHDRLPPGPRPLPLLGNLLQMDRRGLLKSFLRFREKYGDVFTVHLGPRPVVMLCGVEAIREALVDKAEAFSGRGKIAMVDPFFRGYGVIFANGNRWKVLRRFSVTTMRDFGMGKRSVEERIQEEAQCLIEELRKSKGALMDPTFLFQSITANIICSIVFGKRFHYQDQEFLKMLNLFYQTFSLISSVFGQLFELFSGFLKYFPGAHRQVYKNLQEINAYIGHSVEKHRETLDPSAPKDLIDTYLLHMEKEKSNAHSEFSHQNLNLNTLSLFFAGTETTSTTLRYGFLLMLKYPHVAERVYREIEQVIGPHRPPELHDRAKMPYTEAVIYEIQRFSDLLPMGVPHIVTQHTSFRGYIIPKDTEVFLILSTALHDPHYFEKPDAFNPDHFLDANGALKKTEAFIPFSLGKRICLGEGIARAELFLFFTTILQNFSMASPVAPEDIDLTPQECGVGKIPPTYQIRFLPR
Procedure: (§1) In this study, individual CYP isoforms expressed from human cDNA and P450 reductase cDNA were used (BD SUPERSOMES™ Enzymes, BD Biosciences Discovery Labware, Woburn, Mass.). SUPERSOMES™ are microsomes from baculovirus-infected insect cells containing singly expressed recombinant human CYP enzymes.
(§2) After a 5-minute preincubation, an appropriate amount of the appropriate buffer was added to the reaction mixtures to make the final volume of 0.5 mL. The incubations were continued for 60 minutes.
(§3) All incubation reactions were terminated by adding 0.5 mL methanol, and the samples were transferred to cryovials and stored at −70±10° C. until analysis.

[2] = biological target: Human CYP3A4 + P450 Reductase + Cytochrome b5 SUPERSOMES (Homo sapiens, UniProt P08684)
Chain of Human CYP3A4 + P450 Reductase + Cytochrome b5 SUPERSOMES (P08684 whole entry): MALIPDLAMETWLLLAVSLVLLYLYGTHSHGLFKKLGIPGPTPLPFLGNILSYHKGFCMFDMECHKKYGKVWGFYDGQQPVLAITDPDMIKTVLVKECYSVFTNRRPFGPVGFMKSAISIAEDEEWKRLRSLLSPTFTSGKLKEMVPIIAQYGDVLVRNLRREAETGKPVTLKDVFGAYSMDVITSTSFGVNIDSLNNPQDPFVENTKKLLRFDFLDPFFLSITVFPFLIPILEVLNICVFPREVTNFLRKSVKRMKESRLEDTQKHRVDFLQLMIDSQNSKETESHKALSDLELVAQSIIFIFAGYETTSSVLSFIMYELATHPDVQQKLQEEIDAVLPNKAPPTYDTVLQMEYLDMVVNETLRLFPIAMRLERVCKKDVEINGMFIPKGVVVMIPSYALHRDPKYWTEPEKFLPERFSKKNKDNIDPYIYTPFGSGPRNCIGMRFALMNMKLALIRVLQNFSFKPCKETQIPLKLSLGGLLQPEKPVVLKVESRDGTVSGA
Procedure: as §1, §2, §3

[3] = biological target: CYP2D6 (Homo sapiens, UniProt P10635); assay type: in vitro ADME; settings: 50 μM megestrol acetate, microsomes
Chain of CYP2D6 (P10635 whole entry): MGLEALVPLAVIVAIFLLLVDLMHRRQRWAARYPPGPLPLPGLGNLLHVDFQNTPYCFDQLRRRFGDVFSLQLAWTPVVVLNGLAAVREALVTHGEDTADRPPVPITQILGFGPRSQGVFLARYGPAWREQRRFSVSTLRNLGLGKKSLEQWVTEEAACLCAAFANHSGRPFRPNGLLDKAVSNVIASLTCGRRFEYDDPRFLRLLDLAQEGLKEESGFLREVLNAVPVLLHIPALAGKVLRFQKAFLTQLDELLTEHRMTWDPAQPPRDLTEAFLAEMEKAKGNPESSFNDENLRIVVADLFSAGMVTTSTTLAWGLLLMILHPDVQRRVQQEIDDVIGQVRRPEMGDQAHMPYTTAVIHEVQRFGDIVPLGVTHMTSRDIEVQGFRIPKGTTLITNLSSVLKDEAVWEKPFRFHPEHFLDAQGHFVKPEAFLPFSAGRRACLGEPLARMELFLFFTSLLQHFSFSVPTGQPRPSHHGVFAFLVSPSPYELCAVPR

[4] = tested on: CYP2E1; assay type: in vitro ADME; settings: 50 μM megestrol acetate, microsomes, diethyldithiocarbamate
[5] = biological target: T2, CYP3A4 (Homo sapiens, UniProt P08684); assay type: in vitro ADME; settings: 50 μM megestrol acetate, microsomes, ketoconazole
Target sequence in this assay (P08684 whole entry): as the sequence (P08684 whole entry) above

[6] = biological target: T3, CYP1A2 (Homo sapiens, UniProt P05177)
T3 sequence (P05177 1-516): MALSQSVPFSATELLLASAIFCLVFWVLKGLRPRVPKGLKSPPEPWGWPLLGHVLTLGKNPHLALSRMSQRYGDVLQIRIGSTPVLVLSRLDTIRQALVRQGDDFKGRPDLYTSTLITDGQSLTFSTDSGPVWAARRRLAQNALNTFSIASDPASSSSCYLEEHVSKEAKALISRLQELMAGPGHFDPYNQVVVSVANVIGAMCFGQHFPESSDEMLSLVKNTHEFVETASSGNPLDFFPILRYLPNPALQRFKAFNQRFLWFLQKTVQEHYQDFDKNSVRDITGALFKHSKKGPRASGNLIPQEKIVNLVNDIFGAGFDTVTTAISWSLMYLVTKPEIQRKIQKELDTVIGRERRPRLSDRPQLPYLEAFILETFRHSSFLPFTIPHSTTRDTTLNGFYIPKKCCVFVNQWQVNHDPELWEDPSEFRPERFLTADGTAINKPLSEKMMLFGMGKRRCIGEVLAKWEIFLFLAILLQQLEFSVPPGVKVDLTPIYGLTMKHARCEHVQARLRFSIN
Procedure: The stock solutions were added to incubation mixtures to obtain the final concentrations of 5 and 50 μM, each containing 1% acetonitrile.
Microsomes were prepared by differential centrifugation of liver homogenates pooled from at least ten human donors.
After a 5 minute preincubation, nicotinamide adenine dinucleotide phosphate (NADPH) regenerating system (NRS; 1.7 mg/mL β-NADP, 7.8 mg/mL glucose-6-phosphate, and 6 units/mL glucose-6-phosphate dehydrogenase in 2% sodium bicarbonate solution) was added to initiate the reaction. The final incubation volume was 0.5 mL. Incubations were continued for 60 minutes.
All incubations were conducted at 37±1° C. in a shaking water bath. All incubations were carried out in triplicates.
After a 5-minute preincubation, 2% sodium bicarbonate solution was added to the incubation mixtures. The final incubation volume was 0.5 mL. Incubations were continued for 60 minutes.
Incubation reactions, including the matrix controls and metabolic negative controls, were terminated by adding 0.5 mL methanol.
The samples were analyzed on a Supelcosil LC-18 column (3μ, 120 Å, 3.0×100 mm).

[7] = biological target: CYP2C9 (Homo sapiens, UniProt P11712); assay type: in vitro ADME; parameters: purchased BD Biosciences Discovery Labware, Woburn, Mass; host or cells: baculovirus-infected insect cells; settings: 50 μM megestrol acetate, 20 pmol CYP2C9
Chain of CYP2C9 (P11712 whole entry): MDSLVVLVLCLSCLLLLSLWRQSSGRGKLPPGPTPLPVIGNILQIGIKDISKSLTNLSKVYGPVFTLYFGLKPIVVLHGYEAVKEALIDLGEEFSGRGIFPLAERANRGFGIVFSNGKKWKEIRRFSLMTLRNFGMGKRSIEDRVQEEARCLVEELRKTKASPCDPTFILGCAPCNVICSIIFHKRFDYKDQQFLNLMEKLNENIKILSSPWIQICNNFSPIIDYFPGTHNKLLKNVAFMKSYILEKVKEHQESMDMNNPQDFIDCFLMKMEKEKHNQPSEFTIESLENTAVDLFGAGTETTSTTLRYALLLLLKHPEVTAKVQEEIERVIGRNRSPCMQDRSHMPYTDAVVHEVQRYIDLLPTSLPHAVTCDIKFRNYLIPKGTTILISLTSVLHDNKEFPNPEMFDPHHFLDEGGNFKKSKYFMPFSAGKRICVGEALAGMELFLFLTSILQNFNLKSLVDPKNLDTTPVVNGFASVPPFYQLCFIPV

[8] = biological target: T2, CYP3A4; assay type: in vitro ADME; parameters: purchased BD Biosciences Discovery Labware, Woburn, Mass; host or cells: baculovirus-infected insect cells; settings: 50 μM megestrol acetate, 20 pmol CYP3A4
Target sequence in this assay (P08684 2-503 limits assumed): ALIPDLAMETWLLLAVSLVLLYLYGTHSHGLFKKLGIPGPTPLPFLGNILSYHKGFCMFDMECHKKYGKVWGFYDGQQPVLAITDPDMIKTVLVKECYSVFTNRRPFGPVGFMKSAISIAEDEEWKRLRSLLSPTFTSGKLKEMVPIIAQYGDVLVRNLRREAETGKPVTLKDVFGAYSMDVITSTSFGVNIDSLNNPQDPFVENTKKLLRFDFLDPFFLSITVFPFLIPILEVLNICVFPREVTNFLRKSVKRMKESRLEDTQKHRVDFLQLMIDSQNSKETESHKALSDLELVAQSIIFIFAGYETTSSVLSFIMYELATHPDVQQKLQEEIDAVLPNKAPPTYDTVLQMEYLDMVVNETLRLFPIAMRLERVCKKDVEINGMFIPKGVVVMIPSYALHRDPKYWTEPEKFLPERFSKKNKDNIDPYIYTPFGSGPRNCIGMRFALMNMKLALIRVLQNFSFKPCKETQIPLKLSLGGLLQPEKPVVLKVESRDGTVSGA

[9] = 5 μM, 5 pmol enzyme, listed as megestrol acetate
[10] = 5 μM, 20 pmol enzyme, listed as megestrol acetate
[11] = 50 μM, 5 pmol enzyme, listed as megestrol acetate
[12] = 50 μM, 20 pmol enzyme, listed as megestrol acetate

CC(=O)O[C@]1(C(C)=O)CC[C@H]2[C@@H]3C=C(C)C4=CC(=O)CC[C@]4(C)[C@H]3CC[C@@]21C [Megestrol Acetate, 17 α-acetyloxy-6-methylpregna-4,6-diene-3,20-dione]
Individual Raw Data Observed ([1]; 5 μM, 5 pmol enzyme): 2.221 µM and 2.3 µM and 2.31 µM
Percent of Parent Disappearance Individual ([1]; 5 μM, 5 pmol enzyme): −0.459% and −4.00% and −4.49%
Percent of Parent Disappearance Mean ± SD ([1]; 5 μM, 5 pmol enzyme): −2.98 ± 2.20%
Percent of Parent Disappearance Mean ± SD [1, 9]: 2.98±2.20%
Individual Raw Data Observed ([1]; 5 μM, 20 pmol enzyme): 2.474 µM and 2.381 µM and 2.385 µM
Percent of Parent Disappearance Individual ([1]; 5 μM, 20 pmol enzyme): −0.257% and 3.52% and 3.37%
Percent of Parent Disappearance Mean ± SD ([1]; 5 μM, 20 pmol enzyme): 2.21 ± 2.14%
Percent of Parent Disappearance Mean ± SD [1, 10]: 2.21±2.14%
Individual Raw Data Observed ([1]; 50 μM, 5 pmol enzyme): 20.88 µM and 21.85 µM and 25.99 µM
Percent of Parent Disappearance Individual ([1]; 50 μM, 5 pmol enzyme): 3.63% and −0.862% and −20.0%
Percent of Parent Disappearance Mean ± SD ([1]; 50 μM, 5 pmol enzyme): −5.73 ± 12.5%
Percent of Parent Disappearance Mean ± SD [1, 11]: 5.73±12.5%
Individual Raw Data Observed ([1]; 50 μM, 20 pmol enzyme): 21.46 µM and 22.47 µM and 22.35 µM
Percent of Parent Disappearance Mean ± SD ([1]; 50 μM, 20 pmol enzyme): 2.53 ± 2.43%
Percent of Parent Disappearance Mean ± SD [1, 12]: 2.53±2.43%
Individual Raw Data Observed ([2]; 5 μM, 5 pmol enzyme): 0.8008 µM and 0.7908 µM and 0.8634 µM
Percent of Parent Disappearance Individual ([2]; 5 μM, 5 pmol enzyme): 58.1% and 58.6% and 54.8%
Percent of Parent Disappearance Mean ± SD ([2]; 5 μM, 5 pmol enzyme): 57.2 ± 02.06%
Percent of Parent Disappearance Mean ± SD [2, 9]: 57.2±2.06%
Individual Raw Data Observed ([2]; 5 μM, 20 pmol enzyme): 0.00000 ^a μM
Percent of Parent Disappearance Individual ([2]; 5 μM, 20 pmol enzyme): >93.6%
Percent of Parent Disappearance Mean ± SD ([2]; 5 μM, 20 pmol enzyme): >93.6 ± 0.000%
Percent of Parent Disappearance Mean ± SD [2, 10]: > 93.6±0.000%
Individual Raw Data Observed ([2]; 50 μM, 5 pmol enzyme): 14.3 µM and 14.66 µM and 14.98 µM
Percent of Parent Disappearance Individual ([2]; 50 μM, 5 pmol enzyme): 20.9% and 18.9% and 17.1%
Percent of Parent Disappearance Mean ± SD ([2]; 50 μM, 5 pmol enzyme): 18.9 ± 1.90%
Percent of Parent Disappearance Mean ± SD [2, 11]: 18.9±1.90%
Individual Raw Data Observed ([2]; 50 μM, 20 pmol enzyme): 5.336 µM and 5.631 µM and 6.813 µM
Percent of Parent Disappearance Individual ([2]; 50 μM, 20 pmol enzyme): 73.5% and 72.0% and 66.1%
Percent of Parent Disappearance Mean ± SD ([2]; 50 μM, 20 pmol enzyme): 70.5 ± 3.89%
Percent of Parent Disappearance Mean ± SD [2, 12]: 70.5±3.89%
difference in metabolism in the presence or absence of the inhibitor (LC/MS) [3]: no significant difference in metabolism
difference in metabolism in the presence or absence of the inhibitor (LC/MS) [4]: a significant difference in metabolism
difference in metabolism in the presence or absence of the inhibitor (LC/MS) [5]: a significant difference in metabolism
percent metabolized in presence vs absence of inhibitor (unpaired two-tailed t-test) [6]: does not differ from the percentage of megestrol acetate metabolized in the absence of the inhibitor
metabolized in pooled human liver microsomes ([6]; human, microsomes, 60 min, pH 7.4): > 20%
metabolites formed [7]: no metabolites observed
metabolism of megestrol acetate by mass spectrometric methods [8]: More than 50%
